# Data taken from patent US20150152091A1, “CROP ENHANCEMENT” (Syngenta Participations AG, priority 2012, published 2015).
# Legend:
# Assay type in all cases: in vivo
# [1] = test system: temperate cauliflower Spacestar seeds (Brassica oleracea cv Botrytis); assay: Standard paper germination test for Brassica, suboptimal conditions; details: 25 μM, 10° C. in the light, set A
# Method: The effect of compounds of Formula (I) on the germination of Brassica oleracea cv Botrytis or common cauliflower was tested on two types of cauliflowers: temperate types and tropical types. These two types were chosen because they display different sensitivities to the light conditions and temperature during germination. Germination of a sensitive temperate type is inhibited by light at 10° C. while for the tropical types germination at 20° is stimulated by the presence of light. […] The temperate seed batches tested are part of commercially produced seed batches of various varieties which are known to be sensitive to light at 10° C. These seeds were harvested and cleaned according standard commercial procedures. Ready seed batches were used (Ready indicates the processing level of these seeds: they have been cleaned and sized but received no other treatments). The tropical seed batches tested are part of seed batches produced as basic seed (for maintenance of the parental line) and were processed accordingly. Germination was assessed using the standard paper germination test for Brassica: Fifty seeds were placed on blue germination paper, which was moistened with the appropriate solutions, in closed oblong germination boxes. Each condition was tested in duplo. Germination boxes were placed in controlled germination cabinets with the appropriate temperature and light conditions. Germination of seeds was counted at regular intervals. Seeds were considered to be germinated when the radical had protruded the testa and endosperm (radical size approximately 1 mm). Test compounds were dissolved in DMSO at a concentration of 50 mM and stored at −20° C. The strigolactone analogue GR24 (commercially available as a racemic mixture of 2 diastereoisomers, referred to as “synthetic strigolactone GR-24” and first prepared by Johnson A. W. & all, Journal of the Chemical Society, Perkin Transactions 1, 1981, page 1734-1743) was included as positive control. Germination solutions were prepared by diluting the stock solutions with demineralized water till 25 μM. As control solutions demineralized water and a 0.05% v/v DMSO solution were used.
# [2] = test system: Soybean seeds cv. Toliman; assay: Soybean seedling emergence in saturated warm test (seed treatment)
# Method: Soybean seeds cv. Toliman were treated with a test compound of formula I formulated as FS100, at a dose of 0.05 g ai/kg, 0.005 g ai/kg, or 0.0001 g ai/kg seeds. Seeds were planted on 2 cm levelled pre-chilled moist sand and covered with a 2 cm layer of a mixture of steamed soil and sand (1:1). Enough cold water (10° C.) was added to the sand-soil mixture to adjust soil moisture to 60% water holding capacity. The seeds were incubated at 10° C. in the dark for 10 days and transferred into a chamber with alternating temperature (25° C. day/23° C. night) and light source (12 h) for 10 days. Seedling emergence in % and dry mass of above parts of seedling per tray was determined at the end of the incubation period. The test was performed using four replicates (4×50 seeds). Treated seeds used in the saturated cold test were evaluated in parallel in a saturated warm test. Test conditions were the same as those described for the 10 day warm incubation period of the saturated cold test. Briefly, seeds were placed onto a saturated sand layer of 2 cm and covered with saturated sand-soil mixture (60% WHC) at room temperature. The seeds were incubated 10 days at 25° C. day/23° C. night and 12 h light. Seedling emergence and shoot dry mass was determined as described in the saturated cold test method. The test was performed using four replicates each 50 seeds.
# [3] = test system: Soybean seeds cv. Toliman; assay: Soybean seedling emergence in saturated cold test (seed treatment); details: for Total shoot dry mass: per tray
# Method: Soybean seeds cv. Toliman were treated with a test compound of formula I formulated as FS100, at a dose of 0.05 g ai/kg, 0.005 g ai/kg, or 0.0001 g ai/kg seeds. Seeds were planted on 2 cm levelled pre-chilled moist sand and covered with a 2 cm layer of a mixture of steamed soil and sand (1:1). Enough cold water (10° C.) was added to the sand-soil mixture to adjust soil moisture to 60% water holding capacity. The seeds were incubated at 10° C. in the dark for 10 days and transferred into a chamber with alternating temperature (25° C. day/23° C. night) and light source (12 h) for 10 days. Seedling emergence in % and dry mass of above parts of seedling per tray was determined at the end of the incubation period. The test was performed using four replicates (4×50 seeds).
# [4] = Spacestar 11B313 (cold-sensitive)
# [5] = Spacestar 11B314 (not cold sensitive)
smiles,measurement,setting,value
CC1=CC(OC=C2C(=O)NC3c4ccccc4CC23)OC1=O (stereo not shown) [Compound B1],"Gmax (%), total germination as percentage of sown seeds",[1]; [4],60.5%
same,"stimulation (%), extra germination compared to the DMSO treatment",[1]; [4],0.8%
same,"Gmax (%), total germination as percentage of sown seeds",[1]; [5],93.5%
same,"stimulation (%), extra germination compared to the DMSO treatment",[1]; [5],3.3%
same,Seedling emergence (%),[2]; 0.0001 g ai/kg seeds,91%
same,Total shoot dry mass,[2]; 0.0001 g ai/kg seeds,5.778 g
same,Seedling emergence (%),[2]; 0.005 g ai/kg seeds,94%
same,Total shoot dry mass,[2]; 0.005 g ai/kg seeds,6.440 g
same,Total shoot dry mass,[2]; 0.05 g ai/kg seeds,5.935 g
same,Seedling emergence (%),"[2]; 0.05 g ai/kg seeds, 10 days 25/23° C.",89%
same,Seedling emergence (%),"[3]; 0.0001 g ai/kg seeds, FS100",58.5%
same,Total shoot dry mass,[3]; 0.0001 g ai/kg seeds,4.440 g
same,Seedling emergence (%),"[3]; 0.005 g ai/kg seeds, FS100",67%
same,Total shoot dry mass,[3]; 0.005 g ai/kg seeds,5.065 g
same,Seedling emergence (%),"[3]; 0.05 g ai/kg seeds, FS100, 10 days 10° C. dark then 10 days 25/23° C.",44.5%
same,Total shoot dry mass,[3]; 0.05 g ai/kg seeds,3.365 g
